Experimental data: ChEMBL document CHEMBL1138495, “Inhibition of subgenomic hepatitis C virus RNA replication by acridone derivatives: identification of an NS3 helicase inhibitor” (J Med Chem, 2009)
Converted amounts (≈) assume the structure as drawn. The source made the active and inactive calls. No cut-off for these calls is given here.

Legend:
[1] = Inhibition of ATPase activity of HCV […] expressed in Escherichia coli; design: species or system Hepacivirus hominis
[2] = Cytostatic activity against human HuH5.2 after 3 days by MTS/PMS assay; format: ADME, Huh-5-2; settings: HuH5.2 cells
Hepacivirus hominis = assay: Inhibition of HCV recombinant NS5B RNA polymerase expressed in Escherichia coli up to 100 uM by liquid scintillation counter
Vero [3] = assay: Cytostatic activity against african green monkey Vero cells; format: ADME, cell-based; settings: chlorocebus sabaeus
Vero [4] = assay: Cytostatic activity against african green monkey Vero cells in presence of guanosine; format: ADME, cell-based; settings: chlorocebus sabaeus
Hepatitis C virus = assay: Antiviral activity against HCV infected in human HuH5.2 assessed as inhibition of viral RNA synthesis after 4 days by Steady-Glo-luciferase assay; format: functional, organism-based, Hepacivirus hominis; settings: Huh-5-2, 96 h
[5] = system: Bovine viral diarrhea virus 1; assay: Antiviral activity against Bovine viral diarrhea virus infected in MDBK cells assessed as inhibition of virus-induced cytopathic effect after 4 to 5 days by microscopy; format: functional, organism-based; settings: Bovine viral diarrhea virus isolates and strains
[6] = Cytotoxicity against MDBK cells after 3 days by MTS/PMS method; format: cell-based, Bos taurus; settings: cattle
[7] = molecular target: DNA topoisomerase 2-alpha (Homo sapiens) (UniProt P11388); assay: Inhibition of human topoisomerase 2
[8] = Inhibition of HCV NS3 helicase expressed in Escherichia coli; design: species or system Hepacivirus hominis

Sequence of DNA topoisomerase 2-alpha (Homo sapiens) (P11388 whole entry): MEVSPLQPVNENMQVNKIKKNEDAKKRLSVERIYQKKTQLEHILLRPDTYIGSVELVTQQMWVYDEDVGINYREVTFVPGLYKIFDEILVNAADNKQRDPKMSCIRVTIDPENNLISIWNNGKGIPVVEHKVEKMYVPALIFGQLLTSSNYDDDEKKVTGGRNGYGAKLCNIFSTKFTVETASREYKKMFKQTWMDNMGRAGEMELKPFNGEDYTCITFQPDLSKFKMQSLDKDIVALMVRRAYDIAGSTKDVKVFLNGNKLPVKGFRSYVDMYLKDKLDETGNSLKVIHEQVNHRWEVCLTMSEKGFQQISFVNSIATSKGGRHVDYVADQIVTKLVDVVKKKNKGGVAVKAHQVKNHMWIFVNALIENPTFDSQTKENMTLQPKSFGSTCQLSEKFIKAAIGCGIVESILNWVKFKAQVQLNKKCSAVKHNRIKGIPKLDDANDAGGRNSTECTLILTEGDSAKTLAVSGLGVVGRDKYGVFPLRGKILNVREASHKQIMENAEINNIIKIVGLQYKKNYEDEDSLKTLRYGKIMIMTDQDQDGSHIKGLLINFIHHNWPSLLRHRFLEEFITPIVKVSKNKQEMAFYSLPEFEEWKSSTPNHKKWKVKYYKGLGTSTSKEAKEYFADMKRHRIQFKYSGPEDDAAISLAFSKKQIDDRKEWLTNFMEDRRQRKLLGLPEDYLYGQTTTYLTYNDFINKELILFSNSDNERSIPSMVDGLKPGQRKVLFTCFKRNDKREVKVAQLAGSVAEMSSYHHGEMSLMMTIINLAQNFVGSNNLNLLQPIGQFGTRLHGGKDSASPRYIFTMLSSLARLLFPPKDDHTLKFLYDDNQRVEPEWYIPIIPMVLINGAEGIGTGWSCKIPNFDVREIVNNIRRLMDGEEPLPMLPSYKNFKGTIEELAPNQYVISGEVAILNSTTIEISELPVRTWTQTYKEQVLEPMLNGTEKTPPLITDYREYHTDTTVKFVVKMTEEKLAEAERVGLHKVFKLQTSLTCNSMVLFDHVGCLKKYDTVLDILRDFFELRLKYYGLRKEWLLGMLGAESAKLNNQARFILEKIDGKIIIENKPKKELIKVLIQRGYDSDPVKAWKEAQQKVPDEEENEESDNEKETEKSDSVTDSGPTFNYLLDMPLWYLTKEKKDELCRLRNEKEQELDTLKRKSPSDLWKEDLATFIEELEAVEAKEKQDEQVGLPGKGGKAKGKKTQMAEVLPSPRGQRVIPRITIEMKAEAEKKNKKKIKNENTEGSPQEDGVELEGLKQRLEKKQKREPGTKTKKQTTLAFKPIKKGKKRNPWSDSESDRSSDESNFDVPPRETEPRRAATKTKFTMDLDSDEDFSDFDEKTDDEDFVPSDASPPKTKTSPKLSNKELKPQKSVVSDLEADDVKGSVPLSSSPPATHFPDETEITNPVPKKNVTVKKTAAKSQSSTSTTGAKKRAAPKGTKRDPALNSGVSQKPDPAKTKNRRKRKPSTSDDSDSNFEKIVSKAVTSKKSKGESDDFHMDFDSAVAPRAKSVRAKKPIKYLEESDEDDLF

COc1cc(OC)c2c(=O)c3cc(N)c(N4CCN(c5ccncc5)CC4)cc3n(C)c2c1
IC50 [1]: > 1000 µM | CC50 at 72 h [2]: > 50 µg/mL | Activity (Hepacivirus hominis): inactive | Activity (Vero [3]): Toxic | Activity (Vero [4]): Non-toxic | EC50 (Hepatitis C virus): 5.5 µg/mL (≈ 12.3 µM)

Cn1c2cc(N3CCN(c4ccccn4)CC3)c(N)cc2c(=O)c2c(O)cc(O)cc21
EC50 [5]: 0.5 µg/mL (≈ 1.2 µM) | IC50 [1]: > 1000 µM | CC50 at 72 h [2]: 21 µg/mL (≈ 50.3 µM) | Activity (Hepacivirus hominis): inactive | CC50 at 72 h [6]: > 100 µg/mL | EC50 (Hepatitis C virus): 1.7 µg/mL (≈ 4.07 µM) | Activity [7]: inactive

COc1cc(OC)c2c(=O)c3cc(N)c(N4CCN(c5ccccn5)CC4)cc3n(C)c2c1
EC50 [5]: > 100 µg/mL | IC50 [1]: > 1000 µM | CC50 at 72 h [2]: 50 µg/mL (≈ 112 µM) | Activity (Hepacivirus hominis): inactive | Activity (Vero [3]): Toxic | Activity (Vero [4]): Non-toxic | CC50 at 72 h [6]: > 100 µg/mL | EC50 (Hepatitis C virus): 1.6 µg/mL (≈ 3.59 µM) | Activity [7]: inactive

Cn1c2cc(Cl)c(N)cc2c(=O)c2c(O)cc(O)cc21
EC50 [5]: 0.4 µg/mL (≈ 1.38 µM) | IC50 [1]: > 1000 µM | CC50 at 72 h [2]: 3 µg/mL (≈ 10.3 µM) | Activity (Hepacivirus hominis): inactive | CC50 at 72 h [6]: 5 µg/mL (≈ 17.2 µM) | EC50 (Hepatitis C virus): 1.48 µg/mL (≈ 5.09 µM) | Activity [7]: inactive

COc1cc(OC)c2c(=O)c3cc(N)c(N4CCN(c5nccs5)CC4)cc3n(C)c2c1
IC50 [1]: > 1000 µM | CC50 at 72 h [2]: > 50 µg/mL | IC50 [8]: 50 µg/mL (≈ 111 µM) | Activity (Hepacivirus hominis): inactive | Activity (Vero [3]): Toxic | Activity (Vero [4]): Non-toxic | EC50 (Hepatitis C virus): 3 µg/mL (≈ 6.64 µM)

COc1cc(OCC(C)C)c2c(=O)c3cc(N)c(N4CCN(c5ccccn5)CC4)cc3n(C)c2c1
IC50 [1]: > 1000 µM | CC50 at 72 h [2]: 27 µg/mL (≈ 55.4 µM) | Activity (Hepacivirus hominis): inactive | Activity (Vero [3]): Toxic | Activity (Vero [4]): Non-toxic | EC50 (Hepatitis C virus): 3.8 µg/mL (≈ 7.79 µM)
